From ChEMBL document CHEMBL4811223, “Arenarosides A-G, Polyhydroxylated Oleanane-Type Saponins from Polycarpaea arenaria and their Cytotoxic and Antiangiogenic Activities” (J Nat Prod, 2021)

Tests used:
A549 = test: Cytotoxicity against human A549 cells assessed as cell growth inhibition after 48 hrs by MTT assay; type: functional, cell-based; conditions: A549, 48 h
RT-112 = test: Cytotoxicity against human RT-112 cells assessed as cell growth inhibition after 48 hrs by MTT assay; type: functional, cell-based; conditions: RT-112, 48 h
PC-3 = test: Cytotoxicity against human PC-3 cells assessed as cell growth inhibition after 48 hrs by MTT assay; type: functional, cell-based; conditions: PC-3, 48 h
HCT-116 = test: Cytotoxicity against human HCT-116 cells assessed as cell growth inhibition after 48 hrs by MTT assay; type: functional, cell-based; conditions: HCT-116, 48 h
[1] = Antiangiogenic activity in endothelial cells assessed as inhibition of tube formation incubated for 18 hrs by matrigel-based inverted microscopic analysis; type: functional; conditions: Endothelial cell

Question: For `CC(=O)O[C@H]1[C@H](OC(C)=O)[C@]2(CO)[C@H](O)[C@H](O)[C@]3(C)C(=CC[C@@H]4[C@@]5(C)CC[C@H](O[C@@H]6OC[C@H](O[C@@H]7O[C@H](CO)[C@@H](O)[C@H](O)[C@H]7O[C@@H]7OC[C@@H](O)[C@H](O)[C@H]7O)[C@H](O)[C@H]6O[C@@H]6O[C@H](CO)[C@@H](O)[C@H](O)[C@H]6O)C(C)(C)[C@@H]5CC[C@]43C)[C@@H]2CC1(C)C`, which IC50 (A549) is on record?
Answer: Its IC50 is 8.7 µM.

Question: What about the IC50 (RT-112) of the same compound?
Answer: Its IC50 is 7.3 µM.

Question: And the IC50 (PC-3)?
Answer: Its IC50 is greater than 10 µM.

Question: What about the IC50 (HCT-116) of the same compound?
Answer: Its IC50 is greater than 10 µM.

Question: What about the IC50 [1] of the same compound?
Answer: Its IC50 is 3.2 µM.

Question: Which results are given for `CC(=O)O[C@H]1C(=O)[C@@]2(C)[C@H]([C@H](OC(=O)c3ccccc3)[C@]3(O)C[C@H](OC(=O)[C@H](O)[C@@H](NC(=O)c4ccccc4)c4ccccc4)C(C)=C1C3(C)C)[C@]1(OC(C)=O)CO[C@@H]1C[C@@H]2O` [PACLITAXEL]?
Answer: IC50 (A549): 0.7 µM; IC50 (RT-112): 0.07 µM; IC50 (PC-3): 0.04 µM

Question: Which IC50 [1] does the source give for `COc1ccc(/C=C\c2cc(OC)c(OC)c(OC)c2)cc1O` [COMBRETASTATIN A4] here?
Answer: Its IC50 is 0.37 µM.

Question: For `CC(=O)O[C@@H]1C[C@]2(C)C(=CC[C@@H]3[C@@]4(C)CC[C@H](O[C@@H]5OC[C@H](O[C@@H]6O[C@H](CO)[C@@H](O)[C@H](O)[C@H]6O[C@@H]6OC[C@@H](O)[C@H](O)[C@H]6O)[C@H](O)[C@H]5O[C@@H]5O[C@H](CO)[C@@H](O)[C@H](O)[C@H]5O)C(C)(C)[C@@H]4CC[C@]32C)[C@@H]2CC(C)(C)C[C@H](O)[C@]12CO`, which IC50 (A549) is on record?
Answer: Its IC50 is greater than 10 µM.

Question: What about the IC50 (RT-112) of the same compound?
Answer: Its IC50 is greater than 10 µM.

Question: And the IC50 (PC-3)?
Answer: Its IC50 is greater than 10 µM.

Question: And the IC50 (HCT-116)?
Answer: The IC50 was greater than 10 µM.

Question: And the IC50 [1]?
Answer: Its IC50 is 23.1 µM.

Question: What does the source list for `CC(=O)O[C@H]1CC(C)(C)C[C@H]2C3=CC[C@@H]4[C@@]5(C)CC[C@H](O[C@@H]6OC[C@H](O[C@@H]7O[C@H](CO)[C@@H](O)[C@H](O)[C@H]7O[C@@H]7OC[C@@H](O)[C@H](O)[C@H]7O)[C@H](O)[C@H]6O[C@@H]6O[C@H](CO)[C@@H](O)[C@H](O)[C@H]6O)C(C)(C)[C@@H]5CC[C@@]4(C)[C@]3(C)[C@@H](O)[C@@H](O)[C@@]12CO`?
Answer: IC50 (A549): 6.1 µM; IC50 (RT-112): 6.4 µM; IC50 (PC-3): 9.4 µM; IC50 (HCT-116): 7.7 µM; IC50 [1]: 1.7 µM

Question: With `CC(=O)OC[C@@]12[C@H](O)[C@H](O)[C@]3(C)C(=CC[C@@H]4[C@@]5(C)CC[C@H](O[C@@H]6OC[C@H](O[C@@H]7O[C@H](CO)[C@@H](O)[C@H](O)[C@H]7O[C@@H]7OC[C@@H](O)[C@H](O)[C@H]7O)[C@H](O)[C@H]6O[C@@H]6O[C@H](CO)[C@@H](O)[C@H](O)[C@H]6O)C(C)(C)[C@@H]5CC[C@]43C)[C@@H]1CC(C)(C)C[C@@H]2O` as the compound, how does the IC50 (A549) read?
Answer: The IC50 was greater than 10 µM.

Question: And the IC50 (RT-112)?
Answer: The IC50 was 7.8 µM.

Question: And the IC50 (PC-3)?
Answer: The IC50 was greater than 10 µM.

Question: And the IC50 (HCT-116)?
Answer: The IC50 was 9.8 µM.

Question: And the IC50 [1]?
Answer: The IC50 was 35.8 µM.

Question: Which IC50 (A549) does the source give for `CC(=O)O[C@@H]1[C@H](O)[C@]2(C)C(=CC[C@@H]3[C@@]4(C)CC[C@H](O[C@@H]5OC[C@H](O[C@@H]6O[C@H](CO)[C@@H](O)[C@H](O)[C@H]6O[C@@H]6OC[C@@H](O)[C@H](O)[C@H]6O)[C@H](O)[C@H]5O[C@@H]5O[C@H](CO)[C@@H](O)[C@H](O)[C@H]5O)C(C)(C)[C@@H]4CC[C@]32C)[C@@H]2CC(C)(C)C[C@H](O)[C@]12CO` here?
Answer: The IC50 was greater than 10 µM.

Question: What about the IC50 (RT-112) of the same compound?
Answer: Its IC50 is greater than 10 µM.

Question: What about the IC50 (PC-3) of the same compound?
Answer: Its IC50 is greater than 10 µM.

Question: And the IC50 (HCT-116)?
Answer: Its IC50 is greater than 10 µM.

Question: What about the IC50 [1] of the same compound?
Answer: Its IC50 is 5.1 µM.

Question: Which IC50 (A549) does the source give for `CC1(C)C[C@H](O)[C@]2(CO)[C@H](O)[C@H](O)[C@]3(C)C(=CC[C@@H]4[C@@]5(C)CC[C@H](O[C@@H]6OC[C@H](O[C@@H]7O[C@H](CO)[C@@H](O)[C@H](O)[C@H]7O[C@@H]7OC[C@@H](O)[C@H](O)[C@H]7O)[C@H](O)[C@H]6O[C@@H]6O[C@H](CO)[C@@H](O)[C@H](O)[C@H]6O)C(C)(C)[C@@H]5CC[C@]43C)[C@@H]2C1` here?
Answer: Its IC50 is greater than 10 µM.

Question: And the IC50 (RT-112)?
Answer: The IC50 was greater than 10 µM.

Question: And the IC50 (PC-3)?
Answer: Its IC50 is greater than 10 µM.

Question: And the IC50 (HCT-116)?
Answer: The IC50 was greater than 10 µM.

Question: And the IC50 [1]?
Answer: Its IC50 is 45.9 µM.

Question: What does the source list for `CC(=O)OC[C@@]12[C@H](O)C[C@]3(C)C(=CC[C@@H]4[C@@]5(C)CC[C@H](O[C@@H]6OC[C@H](O[C@@H]7O[C@H](CO)[C@@H](O)[C@H](O)[C@H]7O[C@@H]7OC[C@@H](O)[C@H](O)[C@H]7O)[C@H](O)[C@H]6O[C@@H]6O[C@H](CO)[C@@H](O)[C@H](O)[C@H]6O)C(C)(C)[C@@H]5CC[C@]43C)[C@@H]1CC(C)(C)[C@@H](OC(C)=O)[C@@H]2O`?
Answer: IC50 (A549): 9 µM; IC50 (RT-112): > 10 µM; IC50 (PC-3): 9.9 µM; IC50 (HCT-116): 6.8 µM; IC50 [1]: 5.2 µM

Question: Which results are given for `CC(=O)OC[C@@]12[C@H](O)[C@H](O)[C@]3(C)C(=CC[C@@H]4[C@@]5(C)CC[C@H](O[C@@H]6OC[C@H](O[C@@H]7O[C@H](CO)[C@@H](O)[C@H](O)[C@H]7O[C@@H]7OC[C@@H](O)[C@H](O)[C@H]7O)[C@H](O)[C@H]6O[C@@H]6O[C@H](CO)[C@@H](O)[C@H](O)[C@H]6O)C(C)(C)[C@@H]5CC[C@]43C)[C@@H]1CC(C)(C)[C@@H](OC(C)=O)[C@@H]2O`?
Answer: IC50 (A549): > 10 µM; IC50 (RT-112): > 10 µM; IC50 (PC-3): > 10 µM; IC50 (HCT-116): > 10 µM; IC50 [1]: 15.9 µM
